Structures can show the parent of a compound that is named as a salt.
Each molecule was assayed against T1, angiotensin IV receptor (Cavia porcellus, UniProt H0VNM7) (assay: binding capability to angiotensin IV receptor, inhibition of 125I-angiotensin IV binding to guinea pig hippocampus membrane). Conditions: 0.2 nM 125I-angiotensin IV, Hartley guinea pig hippocampus crude membrane, 37° C., 90 minutes, pH 7.4.
T1 construct: The Hartley guinea pig hippocampus was homogenized in a 50 mM Tris hydrochloride buffer solution; from tissue; host or cells: Hartley guinea pig hippocampus, crude membrane (48,000 x g precipitate)
T1 sequence (H0VNM7 1-1025): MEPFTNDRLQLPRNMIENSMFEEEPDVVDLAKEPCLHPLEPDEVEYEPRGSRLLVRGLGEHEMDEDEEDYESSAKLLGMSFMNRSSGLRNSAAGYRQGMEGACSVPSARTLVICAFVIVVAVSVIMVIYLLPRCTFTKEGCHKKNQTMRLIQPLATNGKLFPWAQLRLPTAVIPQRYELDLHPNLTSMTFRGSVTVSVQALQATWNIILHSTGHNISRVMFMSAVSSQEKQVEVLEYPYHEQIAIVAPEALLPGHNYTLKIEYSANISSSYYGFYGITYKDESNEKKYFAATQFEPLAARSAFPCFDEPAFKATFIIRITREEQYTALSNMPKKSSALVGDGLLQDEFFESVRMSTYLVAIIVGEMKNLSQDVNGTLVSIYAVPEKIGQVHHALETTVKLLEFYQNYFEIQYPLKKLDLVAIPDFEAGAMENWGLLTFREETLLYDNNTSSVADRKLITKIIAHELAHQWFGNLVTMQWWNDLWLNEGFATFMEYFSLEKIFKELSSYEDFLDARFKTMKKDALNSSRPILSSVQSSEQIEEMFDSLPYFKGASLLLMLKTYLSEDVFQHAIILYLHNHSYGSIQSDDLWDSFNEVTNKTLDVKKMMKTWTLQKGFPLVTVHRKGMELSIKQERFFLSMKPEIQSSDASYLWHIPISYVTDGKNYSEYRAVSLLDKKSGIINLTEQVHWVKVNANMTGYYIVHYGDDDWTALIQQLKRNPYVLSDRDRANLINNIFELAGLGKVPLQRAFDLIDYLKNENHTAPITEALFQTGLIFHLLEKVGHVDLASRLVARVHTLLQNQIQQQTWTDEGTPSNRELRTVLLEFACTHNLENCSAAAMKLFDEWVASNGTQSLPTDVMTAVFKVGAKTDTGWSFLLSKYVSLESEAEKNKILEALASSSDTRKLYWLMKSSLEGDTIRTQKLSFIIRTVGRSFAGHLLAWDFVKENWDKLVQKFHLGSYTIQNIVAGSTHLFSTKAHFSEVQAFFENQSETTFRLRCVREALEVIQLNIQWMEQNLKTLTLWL
Description: The binding capability to angiotensin IV receptor was measured by using Hartley guinea pig hippocampus referring to the method described by Miller-Wing et al., J. Pharmacol. Exp. Ther., vol. 266, pp.1718 (1993). The Hartley guinea pig hippocampus was homogenized in a 50 mM Tris hydrochloride buffer solution (pH 7.4) containing 1 mM ethylenediamine-N,N,N',N'-tetraacetic acid (EDTA) and 100 μM phenylmethanesulfonyl fluoride (PMSF). After centrifugation at 900× g, the resulting supernatant was further centrifuged at 48,000× g. The precipitate was washed once with the same buffer solution and suspended in 50 mM Tris hydrochloride buffer solution (pH 7.4) containing 150 mM sodium chloride, 1 mM EDTA, 100 μM PMSF and 0.1% bovine serum albumin (BSA) to give a protein concentration of […] as a crude membrane specimen. […] The radioactivity on the filter paper was measured by using a gamma-counter. The non-specific bond was measured in the presence of 1 μM angiotensin IV, and the specific bond was calculated by subtracting the non-specific bond from the total bond.

Compound | IC50 [nM]
CCCC[C@H](N)CN[C@@H](Cc1ccc(O)cc1)C(=O)N[C@H](CC)CC(C)C [Example 26, N'-[(S)-2-aminohexyl]-N-[(R)-1-ethyl-3-methylbutyl]-L-tyrosinamide dihydrochloride] | 38.5
CCCC[C@H](N)C(=O)N[C@H](CN[C@H](/C=C/c1ccccc1)CC(C)C)Cc1ccc(O)cc1 [Example 27, N-[(S)-1-[(4-hydroxyphenyl)methyl]-2-[(S)-(E)-[1-(2-methylpropyl)-3-phenyl-2-propenyl]amino]ethyl]-L-norleucinamide dihydrochloride] | 328
CCCC[C@H](N)CN[C@H](CN[C@H](/C=C/c1ccccc1)CC(C)C)Cc1ccc(O)cc1 [Example 29, (S)-(E)-N-[(S)-2-[[(S)-2-aminohexyl]amino]-3-(4-hydroxyphenyl)propyl]-5-methyl-1-phenyl-1-hexen-3-amine trihydrochloride] | 24.2

The remaining molecules from weak to strong by IC50, led by results:

IC50 [nM] | Compound
299 | CCCC[C@H](N)C(=O)N[C@H](CN[C@H](CCc1ccccc1)CC(C)C)Cc1ccc(O)cc1 [Example 28, N-[1-[(S)-[(4-hydroxyphenyl)methyl]]-2-[[(R)-3-methyl-1-(2-phenylethyl)butyl]amino]ethyl]-L-norleucinamide dihydrochloride]
171 | CCCC[C@H](N)CN[C@H](CN[C@H](CCc1ccccc1)CC(C)C)Cc1ccc(O)cc1 [Example 30, (R)-N-[(S)-2-[[(S)-2-aminohexyl]amino]-3-(4-hydroxyphenyl)propyl]-5-methyl-1-phenylhexan-3-amine trihydrochloride]
32 | CCCC[C@H](N)CN[C@H](CN[C@H](C(=O)OC)[C@@H](C)CC)Cc1ccc(O)cc1 [Example 31, N-[(S)-2-[[(S)-2-aminohexyl]amino]-3-(4-hydroxyphenyl)propyl]-L-isoleucinemethyl ester trihydrochloride]

Reference: patent publication US6066672A, “Amino compounds and angiotensin IV receptor agonists” (Taisho Pharmaceutical Co., Ltd., priority 1996, dated 2000)
